Data from patent US20220401374A1, “COMPOSITIONS AND METHODS FOR CANCER TREATMENT BY ENHANCING ANTITUMOR IMMUNITY USING TANNIC ACID-BASED NANOCAPSULES” (Purdue Research Foundation, priority 2019, published 2022).

Columns and labels:
[1] = system: splenocytes from C57BL/6 mice; assay: Cytotoxicity of CFZ on splenocytes, bolus-pulse vs low-extended; assay type: cell-based; conditions: 24 h total
Protocol: To estimate whether the sustained supply of CFZ is beneficial to sparing immune cells in the tumor microenvironment, we tested the cytotoxic effect of CFZ on splenocytes in two treatment regimens (FIG. 3A): a pulse treatment of bolus dose (bolus-pulse) and an extended treatment of low dose (low-extended), where bolus-pulse indicates incubation of cells in different CFZ concentrations for 2.4 h followed by washout and incubation in drug-free medium for additional 21.6 h making the total incubation time of 24 h, and low-extended indicates incubating cells in 1/10th CFZ concentrations for 24 h. The bolus-pulse regimen represents unformulated CFZ that is immediately available to the tumor upon intratumoral injection but rapidly diffuses to the circulation, whereas the low-extended regimen mimics the sustained release of CFZ from CFZ-pTA-alb over a prolonged period of time. Splenocytes freshly harvested from C57BL/6 mice were used as a surrogate for immune cells, as the spleen is the largest secondary lymphoid organ containing 25% of total lymphocytes^34, where B cells and T cells constitute 45-50% and 30-35%, respectively^35.
The cytotoxicity of CFZ was also measured on splenocytes. […] Cell viability was measured as described above.

[2] = system: BMDCs; assay: Phagocytosis of pretreated DiI-labeled B16F10 cells by BMDCs; assay type: cell-based, C57BL/6 mice
[3] = system: plasma protein; conditions: cited from earlier work
[4] = system: B16F10 cells; assay: Cytotoxicity by MTT assay in B16F10 cells; assay type: cell-based, murine; conditions: 24 h total
Protocol: Bolus-pulse: Cells were incubated with CFZ-DMSO at different CFZ concentrations for 2.4 h then washed and incubated in drug-free medium for additional 21.6 h making the total incubation time of 24 h. Low-extended: Cells were incubated with at 1/10th CFZ concentrations for 24 h. Cell viability was measured by the MTT assay at the end of 24 h. % cell viability was calculated by normalizing to the viability of control cells treated with the equivalent amount of vehicle for the same period of time.
B16F10 (derived from murine melanoma; ATCC, Manassas, Va., USA) or HCC-1937 (derived from human triple negative breast cancer; ATCC, Manassas, Va., USA) were grown in RPMI 1640 or DMEM medium, respectively, supplemented with 10% FBS and penicillin (100 IU/mL) and streptomycin (100 μg/mL). Cells were seeded in a 96 well plate at a density of 4,000 cells per well. After 24 h incubation, the culture medium was replaced with fresh medium containing CFZ (as a stock solution in DMSO), CFZ-pTA or CFZ-pTA-alb. […] The stop/solubilizing solution was added to dissolve formazan crystals, and the absorbance was read at the wavelength of 562 nm by the SpectraMax M3 microplate reader.

[5] = system: BMDCs; assay: BMDC activation after coculture with pretreated B16F10 cells (CD40, CD86); assay type: cell-based, C57BL/6 mice; conditions: B16F10 pretreated 24 h, 200 nM CFZ-equivalent
Protocol: Bone marrow cells were collected from healthy male C57BL/6 as reported previously^71. Mice at the age of 6-8 weeks were sacrificed using CO2 asphyxiation. Using a syringe, the cavities of femur bones were flushed with RPMI 1640 medium containing penicillin/streptomycin. The collected bone marrow was pipetted several times and passed through a 40 μm cell strainer to obtain single cell suspension. The cells were collected by centrifugation at 500 rcf for 8 min, treated with ACK buffer, rinsed, and suspended in IMDM medium supplemented with 10% FBS, penicillin/streptomycin, 20 ng/mL GM-CSF, and 10 mM β-mercaptoethanol at a density of 2×10^6 cells per 10 mL to differentiate into dendritic cells (DCs). Additional medium was supplemented three days later, and the floating and loosely adherent cells were collected by centrifugation on day 6. The DC phenotype was confirmed by CD11c staining. […] The stained cells were analyzed by flow cytometry (Accuri C6, BD Biosciences, San Jose, Calif., USA). Fluorescence-minus-one (FMO) controls were used for compensation and gating. The extent of phagocytosis was expressed as the percentage of DiI^+CD11c^+ cells per total CD11c^+ cells. The DC activation was assessed by CD11c^+CD40^+ or CD11c^+CD86^+ per total CD11c^+ cells.

Q: With `CC(C)C[C@H](NC(=O)[C@H](CCc1ccccc1)NC(=O)CN1CCOCC1)C(=O)N[C@@H](Cc1ccccc1)C(=O)N[C@@H](CC(C)C)C(=O)[C@@]1(C)CO1` [CFZ, Carfilzomib] as the compound, how does the “sensitivity to bolus-pulse vs low-extended regimen” value [1] read?
A: The value was “less sensitive to the low-extended regimen than to the bolus-pulse regimen”.

Q: And the “BMDC uptake of DiI+ B16F10 cells vs untreated B16F10 cells” value ([2]; 10 μM CFZ equivalent pretreatment 24 h, coculture 4 or 24 h)?
A: Its value is “greater extents of DiI^+CD11c^+ cells per total CD11c^+ cells”.

Q: And the “BMDC uptake of pretreated B16F10 cells at 4° C.” value ([2]; 4° C.)?
A: The value was “diminished”.

Q: What about the “BMDC uptake of DiI+ cells/fragments by confocal microscopy” value ([2]; Pearson's correlation coefficient of signal colocalization) of the same compound?
A: Its value is “increased”.

Q: What about the plasma protein binding [3] of the same compound?
A: The plasma protein binding was 97.6-98.2%.

Q: What about the “sensitivity to bolus-pulse vs low-extended regimen” value [4] of the same compound?
A: The value was “equally sensitive to the two regimens”.

Q: And the “CD40 expression on CD11c+ BMDCs” value [5]?
A: The value was “increased the expression of the two activation markers”.

Q: What about the “CD86 expression on CD11c+ BMDCs” value [5] of the same compound?
A: The value was “increased the expression of the two activation markers”.
